{"source": "patent US6962894B1", "about": "“Herbicidal composition” (Syngenta Crop Protection, Inc., priority 1999, dated 2005)", "experiment_in_all_cases": "Post-emergence greenhouse pot test, herbicide alone and with safener", "type_in_all_cases": "in vivo", "key": {"hard wheat": {"tested_on": "hard wheat", "procedure": "(§1) The test plants are grown in pots under greenhouse conditions until a post-application stage. A standard soil is used as the cultivation substrate. At a post-emergence stage, the herbicides, both alone and in admixture with safeners, are applied to the test plants or to cultivated plants of which the seeds were dressed with safeners. Application is carried out using an emulsion prepared from a 25% emulsifiable concentrate (Example F1, b)) of the test substances using 500 l of water/ha. The rates of application are matched to the optimum dosages determined under field or greenhouse conditions. Evaluation of the tests is carried out after 9, 10, 20 and 24 days (100% action=complete destruction; 0% action=no phytotoxic action)."}, "winter wheat": {"tested_on": "winter wheat", "conditions": "10 days after application", "procedure": "as §1"}, "summer wheat": {"tested_on": "summer wheat", "procedure": "as §1"}, "Alopecurus myosuroides": {"tested_on": "Alopecurus myosuroides", "conditions": "10 days after application", "procedure": "as §1"}, "Lolium rigidum": {"tested_on": "Lolium rigidum", "procedure": "as §1"}, "Agrostis spica-venti": {"tested_on": "Agrostis spica-venti", "conditions": "10 days after application", "procedure": "as §1"}, "winter barley": {"tested_on": "winter barley", "conditions": "10 days after application", "procedure": "as §1"}, "[1]": {"conditions": "9 days after application, herbicide alone 60 g a.i./ha"}, "[2]": {"conditions": "9 days after application, herbicide alone 125 g a.i./ha"}, "[3]": {"conditions": "9 days after application, herbicide alone 250 g a.i./ha"}, "[4]": {"conditions": "20 days after application, herbicide alone 60 g a.i./ha"}, "[5]": {"conditions": "20 days after application, herbicide alone 125 g a.i./ha"}, "[6]": {"conditions": "20 days after application, herbicide alone 250 g a.i./ha"}}, "data": [{"compound": "CCc1cc(C)cc(CC)c1C1C(=O)N2CCOCCN2C1=O", "note": "[herbicide no. I1, 8-(2,6-diethyl-4-methylphenyl)tetrahydropyrazolo[1,2-d][1,4,5]-oxadiazepine-7,9-dione]", "values": [{"measurement": "action (100% = complete destruction; 0% = no phytotoxic action)", "setting": "hard wheat; [1]", "result": 55, "unit": "%"}, {"measurement": "action (100% = complete destruction; 0% = no phytotoxic action)", "setting": "hard wheat; [2]", "result": 60, "unit": "%"}, {"measurement": "action (100% = complete destruction; 0% = no phytotoxic action)", "setting": "hard wheat; [3]", "result": 60, "unit": "%"}, {"measurement": "action (100% = complete destruction; 0% = no phytotoxic action)", "setting": "hard wheat; [4]", "result": 20, "unit": "%"}, {"measurement": "action (100% = complete destruction; 0% = no phytotoxic action)", "setting": "hard wheat; [5]", "result": 30, "unit": "%"}, {"measurement": "action (100% = complete destruction; 0% = no phytotoxic action)", "setting": "hard wheat; [6]", "result": 45, "unit": "%"}, {"measurement": "action (100% = complete destruction; 0% = no phytotoxic action)", "setting": "winter wheat; herbicide alone 15 g a.i./ha", "result": 0, "unit": "%"}, {"measurement": "action (100% = complete destruction; 0% = no phytotoxic action)", "setting": "winter wheat; herbicide alone 30 g a.i./ha", "result": 5, "unit": "%"}, {"measurement": "action (100% = complete destruction; 0% = no phytotoxic action)", "setting": "winter wheat; herbicide alone 60 g a.i./ha", "result": 10, "unit": "%"}, {"measurement": "action (100% = complete destruction; 0% = no phytotoxic action)", "setting": "winter wheat; herbicide alone 125 g a.i./ha", "result": 20, "unit": "%"}, {"measurement": "action (100% = complete destruction; 0% = no phytotoxic action)", "setting": "summer wheat; [1]", "result": 60, "unit": "%"}, {"measurement": "action (100% = complete destruction; 0% = no phytotoxic action)", "setting": "summer wheat; [2]", "result": 60, "unit": "%"}, {"measurement": "action (100% = complete destruction; 0% = no phytotoxic action)", "setting": "summer wheat; [3]", "result": 60, "unit": "%"}, {"measurement": "action (100% = complete destruction; 0% = no phytotoxic action)", "setting": "summer wheat; [4]", "result": 20, "unit": "%"}, {"measurement": "action (100% = complete destruction; 0% = no phytotoxic action)", "setting": "summer wheat; [5]", "result": 40, "unit": "%"}, {"measurement": "action (100% = complete destruction; 0% = no phytotoxic action)", "setting": "summer wheat; [6]", "result": 50, "unit": "%"}, {"measurement": "action (100% = complete destruction; 0% = no phytotoxic action)", "setting": "Alopecurus myosuroides; herbicide alone 15 g a.i./ha", "result": 50, "unit": "%"}, {"measurement": "action (100% = complete destruction; 0% = no phytotoxic action)", "setting": "Alopecurus myosuroides; herbicide alone 30 g a.i./ha", "result": 80, "unit": "%"}, {"measurement": "action (100% = complete destruction; 0% = no phytotoxic action)", "setting": "Alopecurus myosuroides; herbicide alone 60 g a.i./ha", "result": 80, "unit": "%"}, {"measurement": "action (100% = complete destruction; 0% = no phytotoxic action)", "setting": "Alopecurus myosuroides; herbicide alone 125 g a.i./ha", "result": 90, "unit": "%"}, {"measurement": "action (100% = complete destruction; 0% = no phytotoxic action)", "setting": "Lolium rigidum; 10 days after application, herbicide alone 15 g a.i./ha", "result": 60, "unit": "%"}, {"measurement": "action (100% = complete destruction; 0% = no phytotoxic action)", "setting": "Lolium rigidum; 10 days after application, herbicide alone 30 g a.i./ha", "result": 60, "unit": "%"}, {"measurement": "action (100% = complete destruction; 0% = no phytotoxic action)", "setting": "Lolium rigidum; 10 days after application, herbicide alone 60 g a.i./ha", "result": 60, "unit": "%"}, {"measurement": "action (100% = complete destruction; 0% = no phytotoxic action)", "setting": "Lolium rigidum; 10 days after application, herbicide alone 125 g a.i./ha", "result": 80, "unit": "%"}, {"measurement": "action (100% = complete destruction; 0% = no phytotoxic action)", "setting": "Lolium rigidum; [4]", "result": 95, "unit": "%"}, {"measurement": "action (100% = complete destruction; 0% = no phytotoxic action)", "setting": "Lolium rigidum; [5]", "result": 100, "unit": "%"}, {"measurement": "action (100% = complete destruction; 0% = no phytotoxic action)", "setting": "Lolium rigidum; [6]", "result": 100, "unit": "%"}, {"measurement": "action (100% = complete destruction; 0% = no phytotoxic action)", "setting": "Agrostis spica-venti; herbicide alone 15 g a.i./ha", "result": 70, "unit": "%"}, {"measurement": "action (100% = complete destruction; 0% = no phytotoxic action)", "setting": "Agrostis spica-venti; herbicide alone 30 g a.i./ha", "result": 70, "unit": "%"}, {"measurement": "action (100% = complete destruction; 0% = no phytotoxic action)", "setting": "Agrostis spica-venti; herbicide alone 60 g a.i./ha", "result": 80, "unit": "%"}, {"measurement": "action (100% = complete destruction; 0% = no phytotoxic action)", "setting": "Agrostis spica-venti; herbicide alone 125 g a.i./ha", "result": 80, "unit": "%"}, {"measurement": "action (100% = complete destruction; 0% = no phytotoxic action)", "setting": "winter barley; herbicide alone 15 g a.i./ha", "result": 0, "unit": "%"}, {"measurement": "action (100% = complete destruction; 0% = no phytotoxic action)", "setting": "winter barley; herbicide alone 30 g a.i./ha", "result": 0, "unit": "%"}, {"measurement": "action (100% = complete destruction; 0% = no phytotoxic action)", "setting": "winter barley; herbicide alone 60 g a.i./ha", "result": 0, "unit": "%"}, {"measurement": "action (100% = complete destruction; 0% = no phytotoxic action)", "setting": "winter barley; herbicide alone 125 g a.i./ha", "result": 0, "unit": "%"}]}]}
